Data taken from ChEMBL document CHEMBL1156716, “Selenium containing heterocycles: synthesis, anti-inflammatory, analgesic and anti-microbial activities of some new 4-cyanopyridazine-3(2H)selenone derivatives” (Eur J Med Chem, 2008).

Legend:
Mus musculus [1] = assay: Analgesic activity in albino mouse assessed as effect on […] at 10 mg/kg, ip after 1 hrs by hot plate test; format: functional; details: route intraperitoneal
Rattus norvegicus [2] = assay: Antiinflammatory activity in albino rat assessed as inhibition of carrageenan-induced paw edema at 10 mg/kg, ip after 4 hrs; format: functional; details: route intraperitoneal
Rattus norvegicus [3] = assay: Antiinflammatory activity in albino rat assessed as inhibition of carrageenan-induced paw edema at 10 mg/kg, ip after 3 hrs; format: functional; details: route intraperitoneal
Mus musculus [4] = assay: Analgesic activity in albino mouse assessed as effect on […] at 10 mg/kg, ip after 2 hrs by hot plate test; format: functional; details: route intraperitoneal
Rattus norvegicus [5] = assay: Antiinflammatory activity in albino rat assessed as inhibition of carrageenan-induced paw edema at 10 mg/kg, ip after 1 hrs; format: functional; details: route intraperitoneal
Mus musculus [6] = assay: Analgesic activity in albino mouse assessed as effect on […] at 10 mg/kg, ip after 0.5 hrs by hot plate test; format: functional; details: route intraperitoneal
Mus musculus [7] = assay: Analgesic activity in albino mouse assessed as effect on […] at 10 mg/kg, ip after 3 hrs by hot plate test; format: functional; details: route intraperitoneal
Rattus norvegicus [8] = assay: Antiinflammatory activity in albino rat assessed as inhibition of carrageenan-induced paw edema at 10 mg/kg, ip after 0.5 hrs; format: functional; details: route intraperitoneal
Mus musculus [9] = assay: Analgesic activity in albino mouse assessed as effect on […] at 10 mg/kg, ip after 5 hrs by hot plate test; format: functional; details: route intraperitoneal
Rattus norvegicus [10] = assay: Antiinflammatory activity in albino rat assessed as inhibition of carrageenan-induced paw edema at 10 mg/kg, ip after 5 hrs; format: functional; details: route intraperitoneal
Rattus norvegicus [11] = assay: Antiinflammatory activity in albino rat assessed as inhibition of carrageenan-induced paw edema at 10 mg/kg, ip after 2 hrs; format: functional; details: route intraperitoneal
Mus musculus [12] = assay: Analgesic activity in albino mouse assessed as effect on […] at 10 mg/kg, ip after 4 hrs by hot plate test; format: functional; details: route intraperitoneal
Mus musculus [13] = assay: Acute toxicity in ip dosed albino mouse upto 250 mg/kg after 72 hrs; format: organism-based; design: dose 250 mg/kg, route intraperitoneal; details: in vivo

Compound | Activity (Mus musculus [1]) [%] | inhibition in vivo at 10 mg/kg (Rattus norvegicus [2]) [%] | inhibition in vivo at 10 mg/kg (Rattus norvegicus [3]) [%] | Activity (Mus musculus [4]) [%] | inhibition in vivo at 10 mg/kg (Rattus norvegicus [5]) [%] | Activity (Mus musculus [6]) [%] | Activity (Mus musculus [7]) [%] | inhibition in vivo at 10 mg/kg (Rattus norvegicus [8]) [%] | Activity (Mus musculus [9]) [%] | inhibition in vivo at 10 mg/kg (Rattus norvegicus [10]) [%] | inhibition in vivo at 10 mg/kg (Rattus norvegicus [11]) [%] | Activity (Mus musculus [12]) [%] | Activity (Mus musculus [13])
N#CC1=C(N)C2=C(c3ccccc3)C(c3ccccc3)=NNC2[Se]1 (centres undefined) | 77.9 | 36.1 | 29.4 | 75.5 | 9.9 | 67.9 | 79.8 | 8.8 | 65.3 | 44.4 | 29.4 | 75.5 | 
NC1=C(C(=O)c2ccccc2)[Se]C2NN=C(c3ccccc3)C(c3ccccc3)=C12 (centres undefined) | 27.1 | 35.5 | 29.4 | 30.6 | 9 | 25.2 | 36.5 | 9 | 24.2 | 38.8 | 26.4 | 31.9 | 
O=C1NC2(CCCCC2)NC2=C1[Se]C1NN=C(c3ccccc3)C(c3ccccc3)=C21 (centres undefined) |  | 30.5 | 23.5 |  | 9.9 |  |  | 8.7 |  | 38.8 | 23.5 |  | 
N#Cc1c(-c2ccccc2)c(-c2ccccc2)n[nH]c1=[Se] |  | 30.5 | 23.5 |  | 17.2 |  |  | 8.8 |  | 30.5 | 20.5 |  | 
NC(=O)C1=C(N)C2=C(c3ccccc3)C(c3ccccc3)=NNC2[Se]1 (centres undefined) | 97.8 | 47.2 | 44.4 | 99.4 | 14.7 | 90.3 | 98.4 | 8.7 | 83.4 | 50 | 26.4 | 90.5 | Non-toxic
CCOC(=O)C1=C(N)C2=C(c3ccccc3)C(c3ccccc3)=NNC2[Se]1 (centres undefined) | 42.8 | 41.6 | 35.2 | 39.8 | 17.2 | 21.6 | 41.3 | 8.8 | 33.4 | 44.4 | 23.5 | 39.6 | 
CC(=O)C1=C(N)C2=C(c3ccccc3)C(c3ccccc3)=NNC2[Se]1 (centres undefined) |  | 28.5 | 20.5 |  | 17.2 |  |  | 8.8 |  | 33.5 | 20.5 |  | 
CC(=O)Oc1ccccc1C(=O)O [ASPIRIN] | 58.9 |  |  | 50.5 |  | 36.2 | 45.6 |  | 30.01 |  |  | 39.2 | 
COc1ccc2c(c1)c(CC(=O)O)c(C)n2C(=O)c1ccc(Cl)cc1 [INDOMETHACIN] |  | 52.7 | 44.1 |  | 20.5 |  |  | 11.7 |  | 57.5 | 32.3 |  | 
